Data published in patent publication US20030130280A1, “Treatment of acute myeloid leukemia with indolinone compounds” (SUGEN, Inc., priority 2001, published 2003).
Entries after “also recorded” stand apart in the source; their conditions may differ.

How the values were obtained:
OC1-AML5 cell line = assay: Cell viability (trypan blue) and proliferation (alamar blue) with FLT-3 ligand; assay type: cell-based; conditions: trypan blue and alamar blue assays
Description: The first cell line used was the OC1-AML5 cell line known to express the FLT-3 tyrosine kinase. This cell line was maintained in conventional medium containing cytokines to maintain growth in liquid culture. This cell line provides a model to assess activation and inhibition of FLT-3 signaling by FLT-3 ligand and compounds which may inhibit FLT-3. The biological consequences of FLT-3 can be assessed with this cell line.
The OC1-AML5 cell line which express FLT-3-wild type was obtained (Pharmacia).

erk½ = erk½ phosphorylation in OC1-AML5 cells; assay type: cell-based
Description: Activation of downstream pathways by FLT-3 ligand was also investigated, specifically for Stat5 and erk. Stat5 and Erk are downstream mediators of RTK signaling, and may provide readouts for FLT-3 signaling. Stat 5 is a transcription factor which regulates many genes involves in cell survival and proliferation. Erk½ are kinases on the Raf signaling pathway.

MV411 (ITD mutant FLT-3) [1] = assay: Cell proliferation, MV411; assay type: cell-based
MV411 (ITD mutant FLT-3) [2] = assay: Apoptosis by PARP cleavage and caspase 3 staining, ITD-mutant cells; assay type: cell-based; conditions: PARP cleavage, caspase 3 staining
Description: (§1) Apoptosis was measured by analysis of PARP cleavage and by caspase 3 staining.

RS411 (wild type FLT-3) = assay: Apoptosis by PARP cleavage and caspase 3 staining, wild type cells; assay type: cell-based; conditions: PARP cleavage, caspase 3 staining
Description: as §1

FLT-3-ITD = assay: FLT-3 phosphorylation in resected xenograft tumors; assay type: in vivo, athymic mice; conditions: 4 hour treatment
Description: Tumor cells, MV411 in the example shown were implanted subcutaneously in the hindflank of athymic mice. […] For measurement of efficacy, tumor growth was measured at various subsequent time points using vernier calipers. For analysis of phosphorylation, tumors were resected following dosing (4 hours here), pulverized in liquid nitrogen and homogenized in lysis buffer. FLT-3 and Stat5 phosphorylation were measured by immunoprecipitation and Western blot analysis.
Athymic mice were injected subcutaneously with MV411 and RS411 cells to cause tumor formation.

RS4; 11 = assay: VEGF production, RS4;11 cells; assay type: cell-based; conditions: for VEGF %: 0 uM = 100
[3] = Bone marrow model, survival; assay type: in vivo, NOD-SCID mice; conditions: orally once daily
Description: NOD-SCID mice were pretreated with cyclophosphamide (Neosar, Pharmacia, Kalamazoo, Mich.) by intraperitoneal injection of 150 mg/kg/day for 2 days ^(46), followed by 24 hours of rest prior to intravenous (i.v.) injection of 5×10^6 cells via the tail vein. At experimental endpoints, mice were anesthetized, followed by terminal blood collection via intracardiac puncture. Bone marrow cell suspensions were prepared by flushing mouse femurs with cold, sterile PBS. For all studies, a paired Student's t test was used to assess differences between treated and control groups (P<0.05 was considered significant).

VEGF = assay: Plasma VEGF by ELISA; assay type: in vivo; conditions: plasma of NOD-SCID mice
Description: At experimental endpoints, mice were anesthetized, followed by terminal blood collection via intracardiac puncture. Bone marrow cell suspensions were prepared by flushing mouse femurs with cold, sterile PBS. For all studies, a paired Student's t test was used to assess differences between treated and control groups (P<0.05 was considered significant).
Plasma from the NOD-SCID mice described above was analyzed by ELISA for VEGF protein levels using a commercially available kit.

FLT-3 = assay: Phase I single dose study, FLT-3 phosphorylation in whole blood; assay type: in vivo, human; conditions: AML patients, reached in 3 pts at each dose level >200 mg, WT and mutant FLT-3 patients
Description: Immunoprecipitation and Western Blot (IP/W) analysis: Cells were lysed in lysis buffer (20 mM Tris, pH 7.5; 137 mM NaCl; 10% glycerol; 1% NP-40; 0.1% SDS; 2 mM EDTA) containing protease and phosphatase inhibitors (50 mM sodium fluoride, 1 mM sodium orthovanadate, 2 mM Pefabloc, […], […], […], 4 mM leupeptin, and 4 mM pepstatin A). Equivalent amounts of protein were separated by SDS-PAGE, then transferred to nitrocellulose membranes. For analysis of FLT3 phosphorylation, equivalent amounts of protein from each sample were immunoprecipitated overnight at 4*C. with an agarose-conjugated anti-FLT3 antibody (Santa Cruz Biotechnology, Santa Cruz, Calif.). Immune complexes were washed (150 mM NaCl, 1.5 mM MgCl2, 50 mM HEPES, pH 7.5, 10% glycerol, 0.1% Triton X-100, and 1 mM EGTA) and following SDS-PAGE, proteins were transferred to nitrocellulose membranes. Membranes were probed with an anti-phosphotyrosine antibody (Upstate, Lake Placid, N.Y. or Transduction Laboratories, Lexington, Ky.) and then stripped with Restore Western Blot Stripping Buffer (Pierce, Rockford, Ill.). Membranes were reprobed with an anti-FLT3 antibody (Santa Cruz Biotechnology). Stat5 antibodies for immunprecipitation and Western blot analysis were from Upstate Biotechnology and Transduction labs respectively.

In the case of `CCN(CC)CCNC(=O)c1c(C)[nH]c(/C=C2\C(=O)Nc3ccc(F)cc32)c1C` [Compound 1, 5-(5-Fluoro-2-oxo-1,2-dihydro-indol-3-ylidenemethyl)-2,4-dimethyl-1H-pyrrole-3-carboxylic acid(2-diethylamino-ethyl)-amide], the “inhibition of FLT-3 ligand increased cell numbers” value (OC1-AML5 cell line) is reported as “some inhibition”, the “IL-3 dependent erk activation” value (erk½; IL-3 dependent) is reported as “not inhibited” and the “Phosphorylation of erk½” value (erk½; activated by FLT-3 ligand) is reported as “inhibited”. For the same compound, the “expansion of MV411” value (MV411 (ITD mutant FLT-3) [1]) was “inhibited expansion”, the apoptosis (MV411 (ITD mutant FLT-3) [2]) was “causes apoptosis” and the apoptosis (RS411 (wild type FLT-3)) was “causes apoptosis”. For the same compound, the “activated FLT-3 in tumors” value (FLT-3-ITD) was “completely inhibited; also recorded: inhibits”, the VEGF mean sd (RS4; 11; CMPD 1 0.00 uM) was 32.82 and the VEGF mean sd (RS4; 11; CMPD 1 0.01 uM) was 9.62. It also gave a VEGF % (RS4; 11; CMPD 1 0.01 uM) of 31.0%, a VEGF mean sd (RS4; 11; CMPD 1 0.1 uM) of 1.24 and a VEGF % (RS4; 11; CMPD 1 0.1 uM) of 4.0%. The VEGF mean sd (RS4; 11; CMPD 1 1 uM) was 2.3, the VEGF % (RS4; 11; CMPD 1 1 uM) was 7.4% and the VEGF mean sd (RS4; 11; CMPD 1 10 uM) was 2.94. The VEGF % (RS4; 11; CMPD 1 10 uM) was 9.5%, the “dose with highest efficacy on survival” value [3] was 20 mg/kg/day and the survival ([3]; range of doses) was “prolonged survival in a dose-dependent manner”. The “VEGF in plasma (mean)” value (VEGF) was 49 pg/mL and the “inhibition of FLT-3 phosphorylation” value (FLT-3) was > 50%.
